Experimental data as given in patent US7588913B2, “Process for the preparation of cephradine” (DSM IP Assets B.V., priority 2003, dated 2009).
Like-named read-outs stand apart in the source and are kept apart here.

Tests used:
[1] = Stress stability test 2 (3 hrs at 100° C., A450); type: physicochemical; details: for A450 after stress stability test (3 h, 100° C.): crystallisation pH 4.80, hydrate
Description: (§1) The coloration of cephradine hydrate was determined by the absorbance at 450 nm. The absorbance and stress stability of the cephradine hydrate prepared as described above were determined. • 1. Absorbance
(§2) 1 g of cephradine hydrate was dissolved in 10 ml 10% aqueous sodium carbonate solution. The absorbance was determined at 450 nm (=A450) on a Perkin Elmer 550 S spectrophotometer, with 10% aqueous sodium carbonate solution as a reference solution at room temperature. • 2. Stress Stability Test 1.
Cephradine hydrate prepared enzymatically according to Example III and crystallised at different temperatures as indicated in Table 3 was maintained during 3 hrs at 100° C. The A450 of the cephradine crystals thus treated was determined as described above.

[2] = Coloration of cephradine hydrate: absorbance at 450 nm; type: physicochemical; details: before stress stability test, crystallisation pH 4.80
Description: as §2, with “The coloration of cephradine hydrate was determined by the absorbance at 450 nm. The absorbance and stress stability of the cephradine hydrate prepared as described above were determined. • 1. Absorbance 1 g” for “1 g”

[3] = type: physicochemical
Description: as §1, §2
Cephradine hydrate prepared enzymatically according to Example III and chemically according to Reference Experiment B) was kept at 40° C. at a relative humidity of 75%. After 0, 2, 4, 6 8, 10 and 12 weeks the absorbance at 450 nm was determined as described above.

A450 after stress stability test (3 h, 100° C.) [1] | A450 at t = 0 [2] | SMILES | further results
0.291 | 0.021 | CC1=C(C(=O)O)N2C(=O)[C@@H](NC(=O)[C@H](N)C3=CCC=CC3)[C@H]2SC1 [VI, cephradine hydrate] | –
0.330 | 0.017 | CC1=C(C(=O)O)N2C(=O)[C@@H](NC(=O)[C@H](N)C3=CCC=CC3)[C@H]2SC1 [VII, cephradine hydrate] | –
– | – | CC1=C(C(=O)O)N2C(=O)[C@@H](NC(=O)[C@H](N)C3=CCC=CC3)[C@H]2SC1 [Cephradine prepared chemically, cephradine hydrate] | A450 (color stability) ([3]; 0 weeks): 0.028; A450 (color stability) ([3]; 2 weeks): 0.065; A450 (color stability) ([3]; 4 weeks): 0.077; A450 (color stability) ([3]; 6 weeks): 0.161; A450 (color stability) ([3]; 8 weeks): 0.142; A450 (color stability) ([3]; 10 weeks): 0.211
0.056 | 0.018 | CC1=C(C(=O)O)N2C(=O)[C@@H](NC(=O)[C@H](N)C3=CCC=CC3)[C@H]2SC1 [V, cephradine hydrate] | Color stability of cephradine crystals versus crystallization temperature [1]: superior values
0.301 | 0.051 | CC1=C(C(=O)O)N2C(=O)[C@@H](NC(=O)[C@H](N)C3=CCC=CC3)[C@H]2SC1 [IV, cephradine hydrate] | –
